Holding throughout (format): cell-based, human
Data set [1] deals with cellular retinoic acid binding protein 2 (CRABP2). Put plainly: CRABP2 gene expression (TaqMan qPCR) in EpiDerm Full Thickness skin equivalents. As to conditions: EFT-400 skin equivalents, 4 μL topical, 24 hours, normalized to POLR2A, vs PgETOH vehicle. The method, then:
(§1) EpiDerm Full Thickness Skin 3D Equivalents (EFT-400) were purchased from MatTek Corporation (Ashland, MA 01721; lot number 34272, kit N & kit P). Upon receipt the skin equivalents were transferred in new 6-well plates (MatTek Corporation, Ashland, MA 01721) with 2.5 mL of EFT-400 medium (MatTek Corportion, Ashland, MA) and equilibrated overnight.
(§2) The following day, skin equivalents were treated topically with 4 μL of the following treatments: Vehicle, 0.04% Retinol, 0.04% Retinol +0.05% Myrrh resin extract, or 0.04% Retinol +0.1% Myrrh resin extract.
(§3) Propylene glycol/ethanol (PgETOH) (3:7) (w/w) was used as a vehicle. Retinol (BASF 50C) was diluted in PgETOH to a stock concentration of 0.4%. 0.4% Retinol was further diluted to make 0.08% Retinol. Since Retinol is 50% active, the percent active Retinol in the final treatment solution was 0.04% Retinol. Myrrh resin extract (Firmenich) was weighed out to 16.1 mg and diluted in 1.6 mL of PgETOH for a 1% Myrrh resin extract stock solution.
(§4) To make the 0.04% Retinol+0.1% Myrrh resin extract treatment solution combine 100 μL of the 0.4% retinol stock solution, 50 μL of the 1% Myrrh resin extract stock solution, and 350 μL of PgETOH. […]
(§5) The fold changes were calculated in comparison to the vehicle control and two-tailed two-sample Student t-tests (Microsoft Office Excel 2007; Microsoft, Redmond, WA, USA) were performed. […]

For data set [2], the system named is aquaporin-3 (AQP3). Put plainly: AQP3 gene expression (TaqMan qPCR) in EpiDerm Full Thickness skin equivalents. The conditions noted are these: EFT-400 skin equivalents, 4 μL topical, 24 hours, normalized to POLR2A, vs PgETOH vehicle. As to the method: as §1, §2, §3, §4, §5
The subject of data set [3] is interleukin-8 (IL8). The experiment in a line: IL8 gene expression (TaqMan qPCR) in EpiDerm Full Thickness skin equivalents. As to conditions: EFT-400 skin equivalents, 4 μL topical, 24 hours, normalized to POLR2A, vs PgETOH vehicle; irritation marker. The method, then:
as §1, §2, §3, §4, §5
(In general: Quantitative PCR measures a nucleic acid by following its amplification.)

Regarding `CC1=C(/C=C/C(C)=C/C=C/C(C)=C/CO)C(C)(C)CCC1` [Sample 2, Retinol], the “CRABP2 Average fold change over untreated” value in data set [1] turned out to be 2.22. Besides, in data set [2], the “AQP3 Average fold change over untreated” value came to 1.82. In addition, the “IL8 Average fold change over untreated” value in data set [3] is given as 1.22.

Values taken from US20250114294A1, “COMPOSITIONS SUITABLE FOR USE IN SKIN CARE” (Johnson & Johnson Consumer Inc., priority 2023, published 2025).
